pEC50: −log10 of the molar value. Like-named read-outs stand apart in the source and are kept apart here.
Molecular target: T1, alpha2A receptor (Homo sapiens, UniProt P08913)
T1 sequence (P08913 1-465): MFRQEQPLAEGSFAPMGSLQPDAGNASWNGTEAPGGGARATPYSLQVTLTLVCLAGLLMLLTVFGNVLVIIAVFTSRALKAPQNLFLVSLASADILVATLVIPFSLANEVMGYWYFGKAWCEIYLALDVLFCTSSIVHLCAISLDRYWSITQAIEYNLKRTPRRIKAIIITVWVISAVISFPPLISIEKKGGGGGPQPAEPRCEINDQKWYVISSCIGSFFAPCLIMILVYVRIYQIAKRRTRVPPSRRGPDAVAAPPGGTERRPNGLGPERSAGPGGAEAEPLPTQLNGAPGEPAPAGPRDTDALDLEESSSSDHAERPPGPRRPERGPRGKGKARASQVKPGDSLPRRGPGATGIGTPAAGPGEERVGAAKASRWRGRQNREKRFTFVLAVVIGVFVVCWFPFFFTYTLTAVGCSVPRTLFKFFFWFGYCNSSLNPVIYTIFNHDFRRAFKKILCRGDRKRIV
Assay: Alpha2A agonistic activity in vitro
Type: cell-based
Conditions: for pEC50: Alpha2A Agonism pEC50, in vitro; for Alpha2A Intrinsic Activity / EC50: in vitro; for EC50: read-out: Alpha2A Agonism pEC50 (converted)

Row | Compound | pEC50 | Alpha2A Intrinsic Activity | EC50
1 | C#Cc1cccc2c1CCOC2C1=NCCN1 (stereo not shown) [Example 15, 2-(5-Ethynylisochroman-1-yl)-4,5-dihydro-1H-imidazole] | 7.80 | 0.88 | –
2 | CC[C@@H]1Cc2c(cccc2C(F)(F)F)C(C2=NCCN2)O1 (stereo partly drawn) [Example 16, 2-((3R)-3-ethyl-5-(trifluoromethyl)isochroman-1-yl)-4,5-dihydro-1H-imidazole] | – | 0.51 | 50.1 nM
3 | COc1cccc2c1CCOC2C1=NCCN1 (stereo not shown) [Example 17, 2-(5-Methoxyisochroman-1-yl)-4,5-dihydro-1H-imidazole] | – | 0.81 | 25.1 nM
4 | Ic1cccc2c1CCOC2C1=NCCN1 (stereo not shown) [Example 18, 2-(5-Iodoisochroman-1-yl)-4,5-dihydro-1H-imidazole] | 8.70 | 0.81 | –
5 | C[C@@H]1Cc2c(cccc2C(F)(F)F)C(C2=NCCN2)O1 (stereo partly drawn) [Example 19, 2-((3R)-3-methyl-5-(trifluoromethyl)isochroman-1-yl)-4,5-dihydro-1H-imidazole] | 8.30 | 0.81 | –
6 | CC1COC(C2=NCCN2)c2cccc(Br)c21 (stereo not shown) [Example 20, 2-(5-Bromo-4-methylisochroman-1-yl)-4,5-dihydro-1H-imidazole] | 7.20 | 0.87 | –
7 | Cc1cccc2c1C[C@@H](C)OC2(C)C1=NCCN1 (stereo partly drawn) [Example 23, 2-((3R)-1,3,5-trimethylisochroman-1-yl)-4,5-dihydro-1H-imidazole] | – | 0.68 | 316 nM
8 | CC1(C2=NCCN2)OCCc2c(C3CC3)cccc21 (stereo not shown) [Example 24] | – | 0.20 | 794 nM
9 | Cc1cccc2c1CC(C)OC2C1=NCCN1 (stereo not shown) [Example 25, 2-(3,5-Dimethylisochroman-1-yl)-4,5-dihydro-1H-imidazole] | 8.50 | 0.82 | –
10 | CC1Cc2c(Cl)cccc2C(C2=NCCN2)O1 (stereo not shown) [Example 26, 2-(5-Chloro-3-methylisochroman-1-yl)-4,5-dihydro-1H-imidazole] | 8.40 | 0.82 | –
11 | CCC1Cc2c(C)cccc2C(C2=NCCN2)O1 (stereo not shown) [Example 27, 2-(3-Ethyl-5-methylisochroman-1-yl)-4,5-dihydro-1H-imidazole] | 7.60 | 0.69 | –
12 | CC1Cc2c(Cl)cccc2C(C)(C2=NCCN2)O1 (stereo not shown) [Example 28, 2-(5-Chloro-1,3-dimethylisochroman-1-yl)-4,5-dihydro-1H-imidazole] | – | 0.64 | 1000 nM
13 | CC1Cc2c(Br)cccc2C(C2=NCCN2)O1 (stereo not shown) [Example 29, 2-(5-Bromo-3-methylisochroman-1-yl)-4,5-dihydro-1H-imidazole] | 8.70 | 0.99 | –
14 | Cc1cccc2c1CC(C)OC2(C)C1=NCCN1 (stereo not shown) [Example 30, 2-(1,3,5-Trimethylisochroman-1-yl)-4,5-dihydro-1H-imidazole] | – | 0.60 | 794 nM
15 | CC1Cc2c(Br)cccc2C(C)(C2=NCCN2)O1 (stereo not shown) [Example 31, 2-(5-Bromo-1,3-dimethylisochroman-1-yl)-4,5-dihydro-1H-imidazole] | – | 0.43 | 1260 nM
16 | C[C@@H]1Cc2c(Br)cccc2C(C2=NCCN2)O1 (stereo partly drawn) [Example 32, 2-((3R)-5-bromo-3-methylisochroman-1-yl)-4,5-dihydro-1H-imidazole] | 9.00 | 0.92 | –
17 | C[C@@H]1Cc2c(Cl)cccc2C(C2=NCCN2)O1 (stereo partly drawn) [Example 33, 2-((3R)-5-chloro-3-methylisochroman-1-yl)-4,5-dihydro-1H-imidazole] | 8.80 | 0.93 | –
18 | C[C@H]1Cc2c(Cl)cccc2C(C2=NCCN2)O1 (stereo partly drawn) [Example 34, 2-((3S)-5-chloro-3-methylisochroman-1-yl)-4,5-dihydro-1H-imidazole] | 7.20 | 0.78 | –
19 | C[C@H]1Cc2c(Br)cccc2C(C2=NCCN2)O1 (stereo partly drawn) [Example 35, 2-((3S)-5-bromo-3-methylisochroman-1-yl)-4,5-dihydro-1H-imidazole] | 7.80 | 0.80 | –
20 | Cc1cccc2c1C[C@@H](C)OC2C1=NCCN1 (stereo partly drawn) [Example 36, 2-((3R)-3,5-dimethylisochroman-1-yl)-4,5-dihydro-1H-imidazole] | 8.80 | 0.90 | –
21 | Cc1cccc2c1C[C@H](C)OC2C1=NCCN1 (stereo partly drawn) [Example 37, 2-((3S)-3,5-dimethylisochroman-1-yl)-4,5-dihydro-1H-imidazole] | – | 0.63 | 316 nM
22 | COc1cccc2c1CC(C)OC2C1=NCCN1 (stereo not shown) [Example 38, 2-(5-Methoxy-3-methylisochroman-1-yl)-4,5-dihydro-1H-imidazole] | 7.90 | 0.92 | –

Row | Compound | pEC50 | Alpha2A Intrinsic Activity | EC50
23 | CCc1cccc2c1CC(C)OC2C1=NCCN1 (stereo not shown) [Example 39, 2-(5-Ethyl-3-methylisochroman-1-yl)-4,5-dihydro-1H-imidazole] | 7.80 | 0.67 | –
24 | CCCC1Cc2c(Br)cccc2C(C2=NCCN2)O1 (stereo not shown) [Example 40, 2-(5-Bromo-3-propylisochroman-1-yl)-4,5-dihydro-1H-imidazole] | – | 0.31 | 316 nM
25 | CC(C)c1cccc2c1CCOC2C1=NCCN1 (stereo not shown) [Example 41, 2-(5-Isopropylisochroman-1-yl)-4,5-dihydro-1H-imidazole] | – | 0.27 | 251 nM
26 | Fc1cccc2c1CCOC2C1=NCCN1 (stereo not shown) [Example 42, 2-(5-Fluoroisochroman-1-yl)-4,5-dihydro-1H-imidazole] | 7.40 | 0.62 | –
27 | CCC1Cc2c(Br)cccc2C(C2=NCCN2)O1 (stereo not shown) [Example 43, 2-(5-Bromo-3-ethylisochroman-1-yl)-4,5-dihydro-1H-imidazole] | 7.30 | 0.58 | –
28 | COc1cccc2c1C[C@@H](C)OC2C1=NCCN1 (stereo partly drawn) [Example 44, 2-((3R)-5-methoxy-3-methylisochroman-1-yl)-4,5-dihydro-1H-imidazole] | 8.10 | 0.83 | –
29 | CCc1cccc2c1C[C@@H](C)OC2C1=NCCN1 (stereo partly drawn) [Example 45, 2-((3R)-5-ethyl-3-methylisochroman-1-yl)-4,5-dihydro-1H-imidazole] | 8.20 | 0.73 | –
30 | CCC1Cc2c(OC)cccc2C(C2=NCCN2)O1 (stereo not shown) [Example 46, 2-(3-Ethyl-5-methoxyisochroman-1-yl)-4,5-dihydro-1H-imidazole] | 7.10 | 0.45 | –
31 | CCc1cccc2c1C[C@@H](CC)OC2C1=NCCN1 (stereo partly drawn) [Example 47, 2-((3R)-3,5-diethylisochroman-1-yl)-4,5-dihydro-1H-imidazole] | – | 0.22 | 2000 nM
32 | CC[C@@H]1Cc2c(C)cccc2C(C2=NCCN2)O1 (stereo partly drawn) [Example 48, 2-((3R)-3-ethyl-5-methylisochroman-1-yl)-4,5-dihydro-1H-imidazole] | 7.60 | 0.58 | –
33 | C[C@@H]1Cc2c(OC(F)(F)F)cccc2C(C2=NCCN2)O1 (stereo partly drawn) [Example 49, 2-((3R)-3-methyl-5-(trifluoromethoxy)isochroman-1-yl)-4,5-dihydro-1H-imidazole] | – | 0.35 | 126 nM
34 | C[C@@H]1Cc2c(F)cccc2C(C2=NCCN2)O1 (stereo partly drawn) [Example 50, 2-((3R)-5-fluoro-3-methylisochroman-1-yl)-4,5-dihydro-1H-imidazole] | 7.60 | 0.90 | –
35 | CCOc1cccc2c1CCOC2C1=NCCN1 (stereo not shown) [Example 51, 2-(5-Ethoxyisochroman-1-yl)-4,5-dihydro-1H-imidazole] | – | 0.26 | 631 nM
36 | Cc1cccc2c1CC(CC(F)(F)F)OC2C1=NCCN1 (stereo not shown) [Example 52, 2-(5-Methyl-3-(2,2,2-trifluoroethyl)isochroman-1-yl)-4,5-dihydro-1H-imidazole] | – | 0.41 | 100 nM
37 | COc1cccc2c1C[C@H](C)OC2C1=NCCN1 (stereo partly drawn) [Example 53, 2-((3S)-5-methoxy-3-methylisochroman-1-yl)-4,5-dihydro-1H-imidazole] | – | 0.72 | 316 nM
38 | c1cc(-c2ccoc2)c2c(c1)C(C1=NCCN1)OCC2 (stereo not shown) [Example 54, 2-(5-(Furan-3-yl)isochroman-1-yl)-4,5-dihydro-1H-imidazole] | – | 0.16 | 1000 nM
39 | CC#Cc1cccc2c1CCOC2C1=NCCN1 (stereo not shown) [Example 55, 2-(5-(Prop-1-yn-1-yl)isochroman-1-yl)-4,5-dihydro-1H-imidazole] | – | 0.80 | 126 nM
40 | NC(=O)c1cccc2c1CCOC2C1=NCCN1 (stereo not shown) [Example 56, 1-(4,5-Dihydro-1H-imidazol-2-yl)isochroman-5-carboxamide] | – | 0.11 | 3160 nM
41 | c1cc2c3c(c1)C(C1=NCCN1)OCC3CCCC2 (stereo not shown) [Example 57, 2-(3,7,8,9,10,10a-Hexahydro-1H-cyclohepta[de]isochromen-3-yl)-4,5-dihydro-1H-imidazole] | – | 0.11 | 2000 nM
42 | CC(O)c1cccc2c1CCOC2C1=NCCN1 (stereo not shown) [Example 58, 1-(1-(4,5-Dihydro-1H-imidazol-2-yl)isochroman-5-yl)ethanol] | – | 0.47 | –
43 | Cc1cc(C)c2c(c1)C(C1=NCCN1)OCC2 (stereo not shown) [Example 59, 2-(5,7-Dimethylisochroman-1-yl)-4,5-dihydro-1H-imidazole] | 7.40 | 0.81 | –
